Results reported in PubChem BioAssay AID248 (DTP/NCI, 2004).
Values joined by “and” are separate entries in the source; they are usually repeats but may differ in a detail not shown here. Equal values may be shown once. Toxic doses and inconclusive results are not listed. Cut-off read from the data, not from the text of the source: active = T/C of 150% or more; inactive = T/C below 125%.

System: L1210 leukemia ip in BDF1 mice, survival T/C
Test: NCI In Vivo Anticancer Drug Screen. Data for tumor model L1210 Leukemia (intraperitoneal) in B6D2F1 (BDF1) mice
Conditions: endpoint: mean survival time, higher = longer survival
How it was run: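 Value reflects the ratio of survival in compound-treated mice to survival in vehicle-treated controls, with both groups carrying the same transplanted tumor.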

[1] = dose: 200.0 mg/kg/injection, schedule: Q04DX003 (ip), vehicle: saline with Tween-80
[2] = dose: 50.0 mg/kg/injection, schedule: Q01DX009 (ip), vehicle: saline
[3] = dose: 100.0 mg/kg/injection, schedule: Q01DX009 (ip), vehicle: saline
[4] = dose: 100.0 mg/kg/injection, schedule: Q01DX001 (ip), vehicle: Klucel (hydroxypropylcellulose) (HPC)
[5] = dose: 200.0 mg/kg/injection, schedule: Q01DX001 (ip), vehicle: Klucel (hydroxypropylcellulose) (HPC)
[6] = dose: 400.0 mg/kg/injection, schedule: Q01DX001 (ip), vehicle: Klucel (hydroxypropylcellulose) (HPC)
[7] = dose: 100.0 mg/kg/injection, schedule: Q01DX001 (ip), vehicle: saline
[8] = dose: 25.0 mg/kg/injection, schedule: Q04DX002 (ip), vehicle: Klucel (hydroxypropylcellulose) (HPC)
[9] = dose: 50.0 mg/kg/injection, schedule: Q04DX002 (ip), vehicle: Klucel (hydroxypropylcellulose) (HPC)
[10] = dose: 100.0 mg/kg/injection, schedule: Q01DX009 (ip), vehicle: Klucel (hydroxypropylcellulose) (HPC)
[11] = dose: 100.0 mg/kg/injection, schedule: Q04DX002 (ip), vehicle: Klucel (hydroxypropylcellulose) (HPC)
[12] = dose: 200.0 mg/kg/injection, schedule: Q01DX009 (ip), vehicle: Klucel (hydroxypropylcellulose) (HPC)
[13] = dose: 200.0 mg/kg/injection, schedule: Q04DX002 (ip), vehicle: Klucel (hydroxypropylcellulose) (HPC)
[14] = dose: 200.0 mg/kg/injection, schedule: Q01DX001 (ip), vehicle: saline
[15] = dose: 400.0 mg/kg/injection, schedule: Q01DX001 (ip), vehicle: saline
[16] = dose: 75.0 mg/kg/injection, schedule: Q01DX001 (ip), vehicle: acetone
[17] = dose: 150.0 mg/kg/injection, schedule: Q01DX001 (ip), vehicle: acetone
[18] = dose: 300.0 mg/kg/injection, schedule: Q01DX001 (ip), vehicle: acetone
[19] = dose: 100.0 mg/kg/injection, schedule: Q01DX009 (ip), vehicle: saline with Tween-80
[20] = dose: 200.0 mg/kg/injection, schedule: Q01DX009 (ip), vehicle: saline with Tween-80

Measured: T/C

O=[N+]([O-])c1ccccc1CSc1ncnc2nc[nH]c12
inactive: dose: 132.0 mg/kg/injection, schedule: Q04DX003 (ip), vehicle: saline with Tween-80 102 % of control | [1] 100 % of control | dose: 300.0 mg/kg/injection, schedule: Q04DX003 (ip), vehicle: saline with Tween-80 105 % of control

CC(O)(c1ccc(Br)cc1)C(c1ccccc1)c1ccccn1 (stereo unspecified)
inactive: [2] 103 % of control | [3] 94 % of control | dose: 100.0 mg/kg/injection, schedule: Q04DX003 (ip), vehicle: saline 110 % of control | dose: 200.0 mg/kg/injection, schedule: Q01DX009 (ip), vehicle: saline 94 % of control | dose: 200.0 mg/kg/injection, schedule: Q04DX003 (ip), vehicle: saline 103 % of control | dose: 400.0 mg/kg/injection, schedule: Q01DX009 (ip), vehicle: saline 101 % of control | dose: 400.0 mg/kg/injection, schedule: Q04DX003 (ip), vehicle: saline 110 % of control

CC1=C(C(=O)O)C(C)CC(=O)N1c1ccccc1 (stereo unspecified)
inactive: dose: 50.0 mg/kg/injection, schedule: Q01DX001 (ip), vehicle: carboxymethylcellulose (CMC) 102 % of control | dose: 100.0 mg/kg/injection, schedule: Q01DX001 (ip), vehicle: carboxymethylcellulose (CMC) 96 % of control | dose: 200.0 mg/kg/injection, schedule: Q01DX001 (ip), vehicle: carboxymethylcellulose (CMC) 93 % of control | dose: 400.0 mg/kg/injection, schedule: Q01DX001 (ip), vehicle: carboxymethylcellulose (CMC) 96 % of control

Cc1ncc(CO)c(Nc2ccccc2)n1
inactive: [4] 90 % of control | [5] 108 % of control | [6] 96 % of control

CC(Cl)(CCl)C(=O)O (stereo unspecified)
inactive: dose: 50.0 mg/kg/injection, schedule: Q01DX001 (ip), vehicle: saline 95 % of control | [7] 103 % of control

N=C(N)CSS(=O)(=O)O
inactive: dose: 12.5 mg/kg/injection, schedule: Q01DX009 (ip), vehicle: Klucel (hydroxypropylcellulose) (HPC) 107 % of control | dose: 12.5 mg/kg/injection, schedule: Q04DX002 (ip), vehicle: Klucel (hydroxypropylcellulose) (HPC) 104 % of control | dose: 25.0 mg/kg/injection, schedule: Q01DX009 (ip), vehicle: Klucel (hydroxypropylcellulose) (HPC) 107 % of control | [8] 101 % of control | [9] 93 % of control

CCSC(SCC)C(OC(C)=O)C(OC(C)=O)C(OC(C)=O)C(COC(c1ccccc1)(c1ccccc1)c1ccccc1)OC(C)=O (stereo unspecified)
inactive: dose: 100.0 mg/kg/injection, schedule: Q04DX002 (ip), vehicle: saline with Tween-80 101 % of control | dose: 200.0 mg/kg/injection, schedule: Q04DX002 (ip), vehicle: saline with Tween-80 89 % of control

N#CC(CC(=O)O)=C(c1ccccc1)c1ccccc1
inactive: [4] 106 % of control | [10] 97 % of control and 104 % of control | [11] 96 % of control and 98 % of control | dose: 100.0 mg/kg/injection, schedule: Q04DX003 (ip), vehicle: Klucel (hydroxypropylcellulose) (HPC) 97 % of control | [5] 110 % of control | [12] 95 % of control and 101 % of control | [13] 95 % of control and 101 % of control | dose: 200.0 mg/kg/injection, schedule: Q04DX003 (ip), vehicle: Klucel (hydroxypropylcellulose) (HPC) 101 % of control

CCc1nc2c(c(=O)[nH]1)C(c1ccc(Cl)cc1)C(C)(C)O2 (stereo unspecified)
inactive: dose: 200.0 mg/kg/injection, schedule: Q04DX003 (ip), vehicle: acetone 94 % of control | dose: 400.0 mg/kg/injection, schedule: Q04DX003 (ip), vehicle: acetone 105 % of control

COC(=O)c1ccc(C(=O)NCCCc2c(C)nc(N)[nH]c2=O)cc1
inactive: [4] 97 % of control | [5] 92 % of control | [6] 92 % of control

Cc1ccc(/C=N\N=C(\N)N/N=C/c2ccc(C)cc2)cc1
inactive: dose: 15.0 mg/kg/injection, schedule: Q01DX Z (ip), vehicle: carboxymethylcellulose (CMC) 95 % of control | dose: 30.0 mg/kg/injection, schedule: Q01DX Z (ip), vehicle: carboxymethylcellulose (CMC) 93 % of control | dose: 60.0 mg/kg/injection, schedule: Q01DX Z (ip), vehicle: carboxymethylcellulose (CMC) 87 % of control | dose: 120.0 mg/kg/injection, schedule: Q01DX Z (ip), vehicle: carboxymethylcellulose (CMC) 96 % of control | dose: 120.0 mg/kg/injection, schedule: Q01DX Z (oral), vehicle: carboxymethylcellulose (CMC) 101 % of control | dose: 240.0 mg/kg/injection, schedule: Q01DX Z (oral), vehicle: carboxymethylcellulose (CMC) 101 % of control | dose: 480.0 mg/kg/injection, schedule: Q01DX Z (oral), vehicle: carboxymethylcellulose (CMC) 96 % of control | dose: 960.0 mg/kg/injection, schedule: Q01DX Z (oral), vehicle: carboxymethylcellulose (CMC) 101 % of control

CC(=O)OC1OCC(COC(=O)c2ccc([N+](=O)[O-])cc2)C1OC(=O)c1ccc([N+](=O)[O-])cc1 (stereo unspecified)
inactive: [7] 92 % of control | [14] 92 % of control | [15] 95 % of control

CN(CSc1ccc([N+](=O)[O-])cc1)CSc1ccc([N+](=O)[O-])cc1
inactive: [7] 94 % of control | [14] 88 % of control | [15] 94 % of control

O=c1c2ccccc2nc(-c2ccccc2)n1/N=C/c1ccco1
inactive: [10] 93 % of control | [12] 94 % of control | dose: 400.0 mg/kg/injection, schedule: Q01DX009 (ip), vehicle: Klucel (hydroxypropylcellulose) (HPC) 96 % of control

N#CCOc1cc(Cl)c(Cl)cc1Cl
inactive: [11] 107 % of control | [13] 97 % of control

NNP(=O)(Oc1ccccc1)Oc1ccccc1
inactive: [2] 108 % of control | [16] 110 % of control | [3] 124 % of control | [17] 103 % of control | [18] 97 % of control

Cc1csc[n+]1C
inactive: dose: 75.0 mg/kg/injection, schedule: Q01DX001 (ip), vehicle: saline 98 % of control | dose: 150.0 mg/kg/injection, schedule: Q01DX001 (ip), vehicle: saline 102 % of control

O=C(O)C(Oc1ccccc1)Oc1ccccc1
inactive: dose: 50.0 mg/kg/injection, schedule: Q01DX001 (ip), vehicle: alkali diluted with saline 100 % of control | dose: 100.0 mg/kg/injection, schedule: Q01DX001 (ip), vehicle: alkali diluted with saline 96 % of control | dose: 200.0 mg/kg/injection, schedule: Q01DX001 (ip), vehicle: alkali diluted with saline 100 % of control | dose: 400.0 mg/kg/injection, schedule: Q01DX001 (ip), vehicle: alkali diluted with saline 96 % of control

NNC(=O)CNc1ccc(F)cc1
inactive: [11] 105 % of control | [13] 114 % of control

CC(C)C1=CCC2C(=C1)CCC1C(C)(C(N)=O)CCCC21C (stereo unspecified)
inactive: [19] 102 % of control | [20] 92 % of control | dose: 400.0 mg/kg/injection, schedule: Q01DX009 (ip), vehicle: saline with Tween-80 89 % of control

N#C/C(=C\c1cccc([N+](=O)[O-])c1)c1ccccc1
inactive: [4] 97 % of control | [5] 101 % of control | [6] 94 % of control

Nc1[nH]nc2nc(-c3ccc(Cl)cc3)cnc12
inactive: dose: 50.0 mg/kg/injection, schedule: Q01DX009 (ip), vehicle: saline with Tween-80 104 % of control | [19] 101 % of control | dose: 100.0 mg/kg/injection, schedule: Q04DX003 (ip), vehicle: saline with Tween-80 95 % of control | [20] 98 % of control | [1] 95 % of control

CCN(CC)C(C)(C)COC(=O)c1ccc([N+](=O)[O-])cc1
inactive: dose: 222.0 mg/kg/injection, schedule: Q01DX Z (ip), vehicle: methylcellulose (MC) 121 % of control | dose: 333.0 mg/kg/injection, schedule: Q01DX Z (ip), vehicle: methylcellulose (MC) 101 % of control | dose: 500.0 mg/kg/injection, schedule: Q01DX Z (ip), vehicle: methylcellulose (MC) 96 % of control

CC(CNC1CCCCC1)OC(=O)c1ccc([N+](=O)[O-])cc1 (stereo unspecified)
inactive: [16] 103 % of control | [17] 93 % of control | [18] 97 % of control

C/C=C/N1CCN(/C=C/C)C1=O
inactive: [8] 96 % of control | [9] 102 % of control | [11] 90 % of control
